Data from PMC7806712, “A novel bifunctional aldehyde/alcohol dehydrogenase catalyzing reduction of acetyl-CoA to ethanol at temperatures up to 95 °C” (Scientific Reports, 2021).

Key:
Aldh (CTN_1548) = target: T1, Aldh (CTN_1548) (Thermotoga neapolitana, UniProt B9K9U1); experiment: spectrophotometric NAD(P)H formation, […] nm; format: biochemical; settings: 20 mM acetaldehyde, 1 mM NAD(P)+, no CoASH, 85 °C, various pH
T1 construct: full-length from genomic DNA, vector-encoded N-terminal residues, C-terminal His-tag kept; E. coli JM109, pHsh; heat treatment, Ni column
T1 sequence (B9K9U1 2-472): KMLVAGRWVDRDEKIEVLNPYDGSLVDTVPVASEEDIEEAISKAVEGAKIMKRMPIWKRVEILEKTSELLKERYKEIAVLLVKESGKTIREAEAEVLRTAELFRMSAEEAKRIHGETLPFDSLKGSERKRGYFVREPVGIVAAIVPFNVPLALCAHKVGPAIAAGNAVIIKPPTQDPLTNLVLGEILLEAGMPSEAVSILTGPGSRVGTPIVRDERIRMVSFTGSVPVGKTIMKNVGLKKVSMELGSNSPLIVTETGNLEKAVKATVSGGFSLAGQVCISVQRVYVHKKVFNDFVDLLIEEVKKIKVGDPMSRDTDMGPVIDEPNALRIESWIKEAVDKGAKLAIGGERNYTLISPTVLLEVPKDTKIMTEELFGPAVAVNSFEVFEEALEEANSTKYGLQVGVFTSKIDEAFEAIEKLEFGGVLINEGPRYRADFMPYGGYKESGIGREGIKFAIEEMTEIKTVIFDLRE

purified protein = substrate: CC(=O)SCCNC(=O)CCNC(=O)[C@H](O)C(C)(C)COP(=O)(O)OP(=O)(O)OC[C@H]1O[C@@H](n2cnc3c(N)ncnc32)[C@H](O)[C@@H]1OP(=O)(O)O; experiment: purified protein; format: biochemical, Thermotoga neapolitana; settings: 0.25 mM NADPH, pH 6.5, 80 °C, reduction to acetaldehyde

Question: For NC(=O)c1ccc[n+]([C@@H]2O[C@H](COP(=O)(O)OP(=O)(O)OC[C@H]3O[C@@H](n4cnc5c(N)ncnc54)[C@H](O)[C@@H]3O)[C@@H](O)[C@H]2O)c1 [NAD^+], which “spectrophotometric NAD(P)H formation, 340 nm” value (Aldh (CTN_1548)) is on record?
Answer: catalyzed the oxidation of aldehydes to acetic acid using either NAD^+ or NADP^+ as coenzyme

Question: How did the “spectrophotometric NAD(P)H formation, 340 nm” value (Aldh (CTN_1548)) turn out when CC=O [ac-ald] was run?
Answer: exhibited only CoA-independent activity that oxidizes ac-ald to acetic acid

B1: Fe-AAdh (CTN_0580) (Thermotoga neapolitana DSM 4359) (protein)
chain: FKISCYLPTEIIFRVGAVDELEERAKKLGKKALIVTGRSSTKKTGLLQRVQDLLKKAGVESIVFDKIVPNPISDHVDEAAEIVRKEKIDFIVGLGGGSPIDSAKAISITAPNEGKFWDYVPVGGGKIPEKSIPVVAIPTTHGTGTEADPFAVITNPETKEKVGIGYRNTFPVLSLVDPEVMKTLPKDQTAYTSMDAFYHAIEAFLNVNANPYSDVLALDAMKRIVTYLPVAYENGEDMEARTNLAWASTEAGITETLTGVIANHALEHGLSGFYPEITHGLGLCITGPYLFEYIFDHAYERLAIVGREVFGVYETDDRKAGKLAIKKLRDFQEMFGLNKRLSELGVKEEDIPKMAETGYRILNGVVVVTPGNLTAKDMEEIFRRCY
notes: full-length from genomic DNA, start Met omitted in primer (vector-encoded N-terminal residues), C-terminal His-tag kept; E. coli JM109, pHsh; heat treatment, Ni column, anaerobic
Question: B1 was tested. Which Km (purified protein) did it give?
Answer: 1750 µM
